# Source: patent US20250092014A1, “COMPOUNDS AND METHODS OF ACTIVATING LIPOPROTEIN LIPASE” (Metrea Biosciences, Inc., priority 2021, published 2025)
# “Also recorded” adds a separate entry of the source.
# Tests used:
# Human LPL [1] = target: T1, Human LPL (Homo sapiens, UniProt P06858); assay: Cellular lipolysis assay, Angptl4 protection, CHO pgsA-745/GPIHBP1 cells; format: cell-based; conditions: 30 μM, 10 μM, 3 μM, 1 M and 0.3 μM doses, compared to 50 nM LPL with 30 nM Angptl4
# T1 construct: purchased R&D Systems; host or cells: LPL added from outside to CHO pgsA-745 cells stably transfected with human GPIHBP1-HA
# T1 sequence (P06858 28-475): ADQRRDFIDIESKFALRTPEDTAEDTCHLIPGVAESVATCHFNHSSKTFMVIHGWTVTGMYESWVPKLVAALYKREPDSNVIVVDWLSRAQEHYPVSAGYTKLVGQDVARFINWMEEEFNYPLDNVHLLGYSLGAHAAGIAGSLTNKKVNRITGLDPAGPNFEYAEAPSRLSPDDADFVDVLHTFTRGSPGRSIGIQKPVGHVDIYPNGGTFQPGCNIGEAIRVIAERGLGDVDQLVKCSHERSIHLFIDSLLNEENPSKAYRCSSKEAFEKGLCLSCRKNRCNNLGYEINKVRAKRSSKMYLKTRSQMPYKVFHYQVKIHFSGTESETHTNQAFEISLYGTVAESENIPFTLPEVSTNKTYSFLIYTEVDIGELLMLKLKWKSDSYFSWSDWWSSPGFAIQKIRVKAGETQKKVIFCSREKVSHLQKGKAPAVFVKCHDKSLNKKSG
# T1 sequence (Q8IV16 21-151 partner limits assumed): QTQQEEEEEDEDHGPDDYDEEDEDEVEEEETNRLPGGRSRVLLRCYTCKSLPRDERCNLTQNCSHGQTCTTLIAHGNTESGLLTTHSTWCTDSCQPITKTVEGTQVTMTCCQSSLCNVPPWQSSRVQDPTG
# Experimental: (§1) Chinese hamster ovary (CHO) mutant pgsA-745 cells were grown in F-12K media (ATCC) with 10% FBS and penicillin/streptomycin. One day prior to transfection 300,000 cells were seeded per well in a 6 well plate and cultured overnight. 2 μg of human GPIHBPI in pcDNA3.1(+)—C-HA (Genscript) were transfected using Lipofectamine 3000 (Invitrogen) and the cells were cultured for 24 hours. Cells were split into selection media (600 μg/ml G418 (Gibco)) and a stable pool was established and verified by qPCR and western blotting using anti-HA (Cell Signaling) and GPIHBP1 (Santa Cruz) antibodies (data not shown).
# (§2) CHO pgsA-745 cells overexpressing GPIHBPI were seeded at 200,000 cells per well in 24 well plates and cultured overnight. Media was replaced with serum-free F-12K media containing 0.1 U/ml heparin and cultured for 2 hours to remove surface bound endogenous LPL, then cells were washed with PBS. Human LPL (R&D Systems) was diluted to 50 nM in serum free media and added for 30 minutes gently shaking at room temperature, then cells were washed with PBS to remove unbound LPL. Test compounds were diluted in serum free media and added to cells for 20 minutes at room temperature gently shaking, followed by 10× ANGPTL4 (30 nM final concentration) for another 20 minutes. Test compound and ANGPTL4 were removed and cells washed with PBS. […] Media was removed and fluorescence read at Ex482/Em515.
# Human LPL [2] = target: T1, Human LPL; assay: Cellular lipolysis assay, intrinsic activation (Angptl4 omitted), CHO pgsA-745/GPIHBP1 cells; format: cell-based; conditions: 30 μM, 10 PM, 3 μM and 1 μM doses, compared to 50 nM LPL alone
# Experimental: as §1
# as §2, with “Test compounds were diluted in serum free media and added to cells for 20 minutes at room temperature gently shaking, followed by 10× ANGPTL4 (30 nM final concentration) for another 20 minutes.” left out
structure (smiles),measurement,setting,value
"O=C(O)Cc1cc(F)ccc1NC(=O)c1ccc(N2CCCCC2)c(NC(=O)c2nn(CC(F)(F)F)c3ccccc23)c1 [Compound 158, 2-(5-fluoro-2-(4-(piperidin-1-yl)-3-(1-(2,2,2-trifluoroethyl)-1H-indazole-3-carboxamido)benzamido)phenyl)acetic acid]","lipolysis activity (EnzChek substrate fluorescence), protection of LPL from inactivation by ANGPTL4",Human LPL [1],protective action; also recorded: significantly increased lipolysis activity
same,"lipolysis activity (EnzChek substrate fluorescence), intrinsic activation of LPL",Human LPL [2],intrinsic activation; also recorded: significantly increased lipolysis activity
